A short description of data set [1]: Dispersion of composition in water (visual). The data set is classed as physicochemical. The settings on record: for liquid dispersibility / wettability: solid placed on liquid (FIG. 2).
Protocol: That the solid substance has non-wettable or poorly-wettable surfaces may be evidenced by the inability of the substance to effectively disperse in water at room temperature (i.e. when added to water, the substance substantially floats on top of the water or is poorly dispersed in the water, see FIG. 2). A sample was added to water to assay the dispersion of the composition. […] A sample of the composition was added to water and mixed and allowed to stand. […] A sample of the composition was added to water and mixed and allowed to stand.
The nature of data set [2]: PEA pharmacokinetics, single 300 mg dose. The settings on record: for Cmax: po, 300 mg. The data set is classed as in vivo, human. How it is done: A single equivalent dose, randomised, double blinded study was used to evaluate the pharmacokinetics of 2 different PEA formulations administered in single 300 mg doses (standard PEA and Lipisperse PEA from Batch#MT20170615_01 described in Example 7). All trial participants, investigators conducting the trial and the biochemist analysing the samples were blinded to who was on each product.
Subjects were healthy adult male (n=10) and female (n=8; non-pregnant and non-lactating) volunteers between the ages of 18-30 years. All participants were advised to fast from 10:[…] the night prior to the study commencing until the collection of the first blood sample. Breakfast and lunch were provided to the participants at the centre. This is a standard feeding study with nutritionally balanced meals and snacks provided during the 0-6 hour sample collection. Subjects remained on site for the full 6 hours of sample collection. Only participants who provided at least 9 of the 11 samples collected between 0-24 hours had their data analysed.
For PEA pharmacokinetic analysis, blood samples (3mL collected into ethylenediaminetetraacetic acid (EDTA) containing tubes) were drawn prior to supplementation (hour 0) and at 30, 45, 60, 90, 120, 180, 240, 300, 360 minutes and 24 hours post supplementation. Once obtained, the blood collection tube was briefly mixed by inversion, placed on ice and centrifuged within 10 minutes of collection (600×g, 4° C. for 10 minutes) to separate the plasma. Once spun, EDTA plasma was carefully removed and approximately 3×500 μl aliquots made. Aliquots were temporarily stored at −20° C. (<48 hours) before being transported and stored at −80° C.
Plasma samples were removed from storage at −80° C. and allowed to thaw to room temperature. Once thawed, 100 μL of sample was added to a microfuge tube along with 20 μL of an internal standard solution (50 ng/mL of D8-arachidonic acid (D8-AA) in ethanol). Proteins were precipitated by adding 100 μL of acetone. The tubes were capped and vortex mixed for 15 seconds then put on ice for 10 minutes. The resulting solution was spun at 12,000×g for 10 minutes before the supernatant was removed into a new tube. To the supernatant, 800 μL of a methanol/chloroform solution (2:1) was added along with 240 μL of 3M HCl to achieve phase separation. This solution was vortex mixed for 10 seconds followed by gentle mixing on rotator. After 10 minutes of gentle rotation, the tubes were centrifuged at 12,000×g for 10 minutes with the resulting chloroform layer (bottom layer) transferred to a glass culture tube and dried under a stream of nitrogen gas.
Once dry, the samples were reconstituted in 100 μL of ethanol, mixed and the contents transferred to salinized GC-MS glass inserts and dried under nitrogen. Once dry, the samples were derivatized via the addition of 40 μL of pentafluorobenzylbromide (PFBBr, 10% in acetonitrile −4 μL of PFBBr and 36 μL of ACN) and 20 μL di-isopropylethylamine (DIPEA, 10% in acetonitrile−2 μL DIPEA and 18 μL of ACN) and vortex mixed for 5 seconds. Samples were then incubated at room temperature for 30 min before being dried under nitrogen and the insert placed into GC-MS vials. To each vial, 10 μL of anhydrous pyridine and 20 μL of bis-(trimethylsilyl)trifluoroacetamide and trimethylchlorosilane (BSTFA+TMCS, 99:1) was added, the vial capped and vortex mixed for 5 seconds. The samples were incubated for 20 min at 45° C. The samples were allowed to cool before 70 μL of anhydrous hexane was added and the samples place on the auto sampler rack for analysis.
The standard PEA was purchased from Sigma Aldrich (P0359-10MG) and stored at −20° C. as per manufacturer's instructions. The PEA standard was made up to 1 mM solution with ethanol. Working standard solutions were prepared by diluting the 1 mM solution (or 1 μM/mL) 1:10 with ethanol for a 100 nM/mL solution. This solution was further diluted 1:10 with hexane for a concentration of 10 nM/mL. […]

These results are taken from patent US12383502B2, “Cold-water-dispersible chemical delivery system” (PHARMAKO BIOTECHNOLOGIES PTY LIMITED, priority 2017, dated 2025).

Each structure is given as a SMILES string. Read-outs that look alike come from different tables or passages of the source.

As for `CCCCCCCCCCCCCCCC(=O)NCCO` [PEA, Palmitoylethanolamide], the “liquid dispersibility / wettability” value in data set [1] was “sitting on top of a liquid, without dispersion”.
With `CCCCCCCCCCCCCCCC(=O)NCCO` [Standard PEA, Palmitoylethanolamide], the Cmax in data set [2] (both sexes, human, plasma, plasma, single oral 300 mg, n=9 per group, read-out: Cmax PEA) turned out to be 3010 ± 1240 ng/mL; in data set [2] (both sexes, human, plasma, plasma, single oral 300 mg, n=9 per group, read-out: Delta Cmax (peak change in PEA concentration from baseline)) it was 410 ng/mL. In addition, the concentration at 24 h in data set [2] (both sexes, human, plasma, single oral 300 mg, data not shown, read-out: plasma PEA concentration at the 24 hours collection) came out at 2690 ± 1060 ng/mL. Further, the concentration at 0 h in data set [2] (both sexes, human, plasma, prior to supplementation (hour 0), n=9 per group, read-out: Baseline PEA concentration) amounted to 2590 ± 770 ng/mL. In data set [2] (plasma PEA, single oral 300 mg), this compound had a Peak timing of 45 min. Also, the adverse events entry in data set [2] (single 300 mg dose, n=9 per group) was “No adverse events”.
In the case of `COc1cc(/C=C/C(=O)CC(=O)/C=C/c2ccc(O)c(OC)c2)ccc1O` [curcumin], in data set [1], the “liquid dispersibility / wettability” value is recorded as “sitting on top of a liquid, without dispersion”.
Take `Oc1ccc(C=Cc2cc(O)cc(O)c2)cc1` [untreated resveratrol, resveratrol]: the “dispersion in water after mixing and standing” value in data set [1] (added to water, mixed and allowed to stand (FIG. 10, FIG. 16)) is reported as “does not disperse effectively”.
